According to patent publication US12428377B2, “Sodium-hydrogen exchanger 3 inhibitor compounds” (Eli Lilly and Company, priority 2019, dated 2025):
Several values for one entry are separate records, joined by “and”; a condition that tells them apart may be missing. Identical values can stand only once.

Columns and labels:
[1] = target: T1, NPT2b (Homo sapiens, UniProt O95436); test: NPT2b inhibition (selectivity)
T1 sequence (O95436 1-690): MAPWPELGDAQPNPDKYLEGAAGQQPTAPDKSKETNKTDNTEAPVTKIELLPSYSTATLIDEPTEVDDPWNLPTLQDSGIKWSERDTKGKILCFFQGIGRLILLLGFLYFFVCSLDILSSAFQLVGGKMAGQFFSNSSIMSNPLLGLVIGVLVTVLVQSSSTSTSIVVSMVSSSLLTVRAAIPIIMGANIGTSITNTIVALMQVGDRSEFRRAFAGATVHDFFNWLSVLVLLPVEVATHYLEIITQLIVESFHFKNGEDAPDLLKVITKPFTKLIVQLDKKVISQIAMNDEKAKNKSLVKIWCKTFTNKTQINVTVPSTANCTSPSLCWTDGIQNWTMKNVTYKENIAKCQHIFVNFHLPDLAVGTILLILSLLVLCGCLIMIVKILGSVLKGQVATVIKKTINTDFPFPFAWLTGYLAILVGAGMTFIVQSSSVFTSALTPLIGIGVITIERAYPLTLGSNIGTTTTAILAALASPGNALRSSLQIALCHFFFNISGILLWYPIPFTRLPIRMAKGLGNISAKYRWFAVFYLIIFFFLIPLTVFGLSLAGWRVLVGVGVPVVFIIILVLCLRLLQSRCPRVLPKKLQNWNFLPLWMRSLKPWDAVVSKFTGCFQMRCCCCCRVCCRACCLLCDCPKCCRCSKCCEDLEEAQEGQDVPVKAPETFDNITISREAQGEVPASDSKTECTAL

[2] = tested on: male Sprague Dawley rats; test: Intestinal phosphate retention: percent radiolabeled dose recovered in gastrointestinal tract; type: in vivo, rat; conditions: Example 2 0.4 mg/kg, 4 h after radiolabeled phosphate
Method: The purpose of this study is to investigate in rats the effect of Example 2, Compound A, and an Example 2/Compound A combination on phosphate absorption 15 min after dosing the compounds and the phosphate retained in the intestine 4.25 h after dosing the compounds. The latter is a measure of the oral phosphate load which is absorbed over an extended period.
Two vehicles are used in this study: 1) 1% HEC and 2) 0.46% poly-1-vinylpyrrolidone-co-vinyl acetate in water (PVP-VA vehicle). The vehicle control group in this study receives a 1:1 combination of the two vehicles.
The Example 2, Compound A and phosphate dosing solutions are prepared similarly as described above, except the doses are 0.4 mg/kg for Example 2 and 10 mg/kg for Compound A and they are prepared at a concentration where they would be dosed in a 5 mL/kg volume. The Example 2 and Compound A alone groups are mixed 1:1 with the vehicle of the other compound, while the Compound A and Example 2 are mixed 1:1 prior to dosing. The final dosing volume is 10 mL/kg in all cases.
4 h after the radiolabeled phosphate solution is dosed, stomach, small intestine, large intestine, and feces are collected, weighed and digested with 1N NaOH overnight at 37° C. Radioactivity in each fraction is measured by scintillation counting.
The percent dose recovered in gastrointestinal tract is defined as radioactivity recovered in stomach, small intestine, large intestine and feces compared to the amount dosed. Data is presented as mean±SEM with animal numbers equal to 8 for the groups. Statistical significance is determined by ANOVA with a Dunnett's comparison to the Example 2/Compound A combination using JMP 12.1.
The percent dose recovered in gastrointestinal tract data is further analyzed by a two-way ANOVA in JMP 12.1 to test for additivity of the effects of Example 2 and Compound A on inhibiting phosphate absorption. […] That is, the inhibitory effect of the combination is greater than the sum of the individual compound effects.

SMILES: CN1Cc2c(Cl)cc(Cl)cc2[C@H](c2cccc(S(=O)(=O)NCCOCCOCCN/C(=N\C(N)=O)NCCCCN/C(=N/C(N)=O)NCCOCCOCCNS(=O)(=O)c3cccc([C@@H]4CN(C)Cc5c(Cl)cc(Cl)cc54)c3)c2)C1.Cl.Cl [Example 2, [[4-[[N′-Carbamoyl-N-[2-[2-[2-[[3-[(4S)-6,8-dichloro-2-methyl-3,4-dihydro-1H-isoquinolin-4-yl]phenyl]sulfonylamino]ethoxy]ethoxy]ethyl]carbamimidoyl]amino]butylamino]-[2-[2-[2-[[3-[(4S)-6,8-dichloro-2-methyl-3,4-dihydro-1H-isoquinolin-4-yl]phenyl]sulfonylamino]ethoxy]ethoxy]ethylamino]methylene]urea dihydrochloride]
- IC50 [1]: 58.4 µM
- Percent Dose Recovered, Feces [2]: <0.1%
- Percent Dose Recovered, Large Intestine ([2]; mean ± SEM): 18.16 ± 2.58%
- Percent Dose Recovered, Small Intestine ([2]; mean ± SEM): 8.64 ± 0.32%
- Percent Dose Recovered, Stomach ([2]; mean ± SEM): 3.9 ± 0.49%
- Percent Dose Recovered, Total ([2]; mean ± SEM, dihydrochloride, 0.4 mg/kg): 31% and 30.7 ± 2.43%
